Source: ChEMBL document CHEMBL3046527, “NAD+-dependent DNA ligase (Rv3014c) from M. tuberculosis: Strategies for inhibitor design” (Med Chem Res, 2008)
pIC50: −log10 of the molar value.

Target: DNA ligase A (Mycobacterium tuberculosis, UniProt P9WNV1)
Assay: Inhibition of Mycobacterium tuberculosis LigA

Structure (SMILES): CC1(C)O[C@H]2OC([C@H](CCO)NCCCN[C@H](CCO)C3O[C@@H]4OC(C)(C)O[C@@H]4[C@H]3OCc3ccccc3)[C@H](OCc3ccccc3)[C@H]2O1 (some centres not stated)
- pIC50: 4.34

Structure (SMILES): CCN(CC)CCCC(C)Nc1ccnc2c1C=CC(Cl)C2 (configuration not stated)
- pIC50: 4.34
